Experimental data as given in ChEMBL document CHEMBL1201862, “PubChem BioAssay data set” (2004).
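Following 48 hours of exposure in 96-well plates, responses at five concentrations were used to interpolate endpoints linearly. At the GI50, growth is halved.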 Activity calls are given as the source filed them. Cut-off read from the data, not from the text of the source: active = GI50 up to about 1.1 µM and inactive = higher.

Tests used:
Experiment in all cases: growth of human tumour cells (NCI), 48 h
BT-549 = test system: BT-549
CCRF-CEM = test system: CCRF-CEM
DU-145 = test system: DU-145
EKVX = test system: EKVX
HCT-15 = test system: HCT-15
IGROV-1 = test system: IGROV-1
KM12 = test system: KM12
MCF7 = test system: MCF7
NCI-H23 = test system: NCI-H23
NCI/ADR-RES = test system: NCI/ADR-RES
OVCAR-3 = test system: OVCAR-3
OVCAR-5 = test system: OVCAR-5
SF-268 = test system: SF-268
SF-295 = test system: SF-295
SK-MEL-5 = test system: SK-MEL-5
U-251 = test system: U-251
UACC-257 = test system: UACC-257
MDA-N = test system: MDA-N
SNB-75 = test system: SNB-75
UACC-62 = test system: UACC-62

SMILES | GI50 (BT-549) | GI50 (CCRF-CEM) | GI50 (DU-145) | GI50 (EKVX) | GI50 (HCT-15) | GI50 (IGROV-1) | GI50 (KM12) | GI50 (MCF7) | GI50 (NCI-H23) | GI50 (NCI/ADR-RES) | GI50 (OVCAR-3) | GI50 (OVCAR-5) | GI50 (SF-268) | GI50 (SF-295) | GI50 (SK-MEL-5) | GI50 (U-251) | GI50 (UACC-257) | GI50 (MDA-N) | GI50 (SNB-75) | GI50 (UACC-62)
ClC1(c2ccccc2)c2ccc(Br)cc2-c2cc(Br)ccc21 | 17.2 µM (inactive) | 34.6 µM (inactive) | 22.6 µM (inactive) | 17.9 µM (inactive) | 16 µM | 16.2 µM (inactive) | 19.4 µM (inactive) | 19 µM (inactive) | 15 µM (inactive) | 18.1 µM (inactive) | 16.9 µM (inactive) | 17.3 µM (inactive) | 18.5 µM (inactive) | 17.9 µM (inactive) | 15.7 µM (inactive) | 17.6 µM (inactive) | 18.3 µM (inactive) | – | – | –
COc1cc(/C=C2\CCC(C)/C(=C\c3cc(OC)c(OC)c(OC)c3)C2=O)cc(OC)c1OC (stereo unspecified) | 1.02 µM (active) | 1.29 µM (inactive) | 7.66 µM (inactive) | 3.21 µM (inactive) | 1.99 µM | 2.38 µM (inactive) | 2.61 µM (inactive) | 2.89 µM (inactive) | – | – | – | 3.38 µM (inactive) | 3.37 µM (inactive) | – | 2.21 µM (inactive) | 4.97 µM (inactive) | 3.78 µM (inactive) | 2.96 µM (inactive) | 18.2 µM (inactive) | 1.82 µM (inactive)
c1ccc(C2(c3ccccc3)S/C(=C3/SC(c4ccccc4)(c4ccccc4)c4ccccc43)c3ccccc32)cc1 | > 100 µM (inactive) | > 100 µM (inactive) | > 100 µM (inactive) | > 100 µM (inactive) | > 100 µM | > 100 µM (inactive) | > 100 µM (inactive) | – | > 100 µM (inactive) | > 100 µM (inactive) | > 100 µM (inactive) | > 100 µM (inactive) | > 100 µM (inactive) | > 100 µM (inactive) | > 100 µM (inactive) | > 100 µM (inactive) | > 100 µM (inactive) | > 100 µM (inactive) | > 100 µM (inactive) | > 100 µM (inactive)
CCCCN(CCCC)CC(=O)c1ccc2cc(Cl)c3ccccc3c2c1 | 19.1 µM (inactive) | > 100 µM (inactive) | > 100 µM (inactive) | 67.3 µM (inactive) | 22.9 µM | 20.9 µM (inactive) | 32 µM (inactive) | 30.1 µM (inactive) | 46.9 µM (inactive) | 99.3 µM (inactive) | 51.4 µM (inactive) | 51.1 µM (inactive) | 16.1 µM (inactive) | 31 µM (inactive) | 17.9 µM (inactive) | 19.6 µM (inactive) | 31.9 µM (inactive) | – | 29.8 µM (inactive) | 32.6 µM (inactive)
C[C@]12Cc3cnn(-c4ccc(F)cc4)c3NC1CC[C@@H]1C2CC[C@@]2(C)C1CC[C@@H]2O (stereo partly specified) | 3.14 µM (inactive) | 6.92 µM (inactive) | 5.42 µM (inactive) | 4.75 µM (inactive) | – | 12.7 µM (inactive) | 4.95 µM (inactive) | 4.32 µM (inactive) | 2.85 µM (inactive) | – | 12.4 µM (inactive) | 12.7 µM (inactive) | 10.1 µM (inactive) | 1.62 µM (inactive) | 2.65 µM (inactive) | 5.15 µM (inactive) | 5.24 µM (inactive) | 10.2 µM (inactive) | 2.76 µM (inactive) | 11 µM (inactive)
COc1nc(C)nc2c1ncn2Cc1ccccc1 | – | > 100 µM (inactive) | > 100 µM (inactive) | 80.7 µM (inactive) | > 100 µM | > 100 µM (inactive) | > 100 µM (inactive) | 58.9 µM (inactive) | > 100 µM (inactive) | > 100 µM (inactive) | > 100 µM (inactive) | > 100 µM (inactive) | 57.3 µM (inactive) | > 100 µM (inactive) | > 100 µM (inactive) | > 100 µM (inactive) | > 100 µM (inactive) | > 100 µM (inactive) | > 100 µM (inactive) | > 100 µM (inactive)
Cc1ccc(/C=C2\CCCCCC2=O)cc1 | > 100 µM (inactive) | 41.3 µM (inactive) | > 100 µM (inactive) | > 100 µM (inactive) | > 100 µM | > 100 µM (inactive) | > 100 µM (inactive) | – | > 100 µM (inactive) | – | > 100 µM (inactive) | > 100 µM (inactive) | > 100 µM (inactive) | > 100 µM (inactive) | > 100 µM (inactive) | > 100 µM (inactive) | > 100 µM (inactive) | > 100 µM (inactive) | > 100 µM (inactive) | > 100 µM (inactive)
Cc1cc(C)c(-c2no/c(=N\S(=O)(=O)c3ccc(Cl)cc3)o2)c(C)c1 | – | > 100 µM (inactive) | > 100 µM (inactive) | > 100 µM (inactive) | > 100 µM | > 100 µM (inactive) | 57.9 µM (inactive) | 16.4 µM (inactive) | > 100 µM (inactive) | 87.3 µM (inactive) | > 100 µM (inactive) | > 100 µM (inactive) | > 100 µM (inactive) | > 100 µM (inactive) | 23.1 µM (inactive) | > 100 µM (inactive) | 31.1 µM (inactive) | > 100 µM (inactive) | > 100 µM (inactive) | > 100 µM (inactive)
CCOc1cc2c(cc1O)/C(=N/NS(=O)(=O)c1ccc(C)cc1)C[C@@H]1[C@@H]2CC[C@]2(C)[C@@H](O)CC[C@@H]12 | 3.7 µM (inactive) | 3.79 µM (inactive) | – | 13 µM (inactive) | 4.53 µM | 12.1 µM (inactive) | 4.22 µM (inactive) | 4.02 µM (inactive) | 32.7 µM (inactive) | 3.5 µM (inactive) | – | 21 µM (inactive) | 7.13 µM (inactive) | 3.15 µM (inactive) | 2.47 µM (inactive) | 6.53 µM (inactive) | 58.2 µM (inactive) | 1.2 µM (inactive) | 5.3 µM (inactive) | –
COc1cc(/C=C2\C[C@H]3[C@@H]4CC=C5C[C@@H](N6CCCC6)CC[C@]5(C)[C@H]4CC[C@]3(C)[C@H]2O)cc(OC)c1OC | 16.1 µM (inactive) | 3.72 µM (inactive) | 16.8 µM (inactive) | 16.1 µM (inactive) | 11.7 µM | 15.9 µM (inactive) | 7.57 µM (inactive) | 8.71 µM (inactive) | 14.9 µM (inactive) | 15.8 µM (inactive) | 15.5 µM (inactive) | 8.79 µM (inactive) | 3.28 µM (inactive) | 13 µM (inactive) | 14.5 µM (inactive) | 15.4 µM (inactive) | 15 µM (inactive) | – | 12.1 µM (inactive) | 18.6 µM (inactive)
COc1cc2c(cc1O)CCN[C@@]21CS[C@H]2c3c(OC(C)=O)c(C)c4c(c3C(COC1=O)N1C2C2NC(Cc3cc(C)c(OC)c(O)c32)[C@@H]1O)OCO4 (stereo partly specified) | < 0.01 µM (active) | < 0.01 µM (active) | < 0.01 µM (active) | < 0.01 µM (active) | – | < 0.01 µM (active) | < 0.01 µM (active) | < 0.01 µM (active) | < 0.01 µM (active) | < 0.01 µM (active) | – | < 0.01 µM (active) | < 0.01 µM (active) | < 0.01 µM (active) | < 0.01 µM (active) | < 0.01 µM (active) | < 0.01 µM (active) | – | – | –
